In patent US20170037078A1, “2' -DIS[…] FOR TREATMENT OF THE FL[…] OF VIRUSES AND CANCER” (Cocrystal Pharma, Inc., priority 2014, published 2017):
Entries after “also recorded” stand apart in the source; their conditions may differ. Like-named read-outs stand apart in the source and are kept apart here.

What was measured:
Format in all cases: cell-based
Human PBM = assay: Cellular toxicity assay in human PBM cells; conditions: Human PBM cells
Procedure: (§1) The toxicity of the compounds was assessed in Vero, human PBM, CEM (human lymphoblastoid), MT-2, and HepG2 cells, as described previously (see Schinazi R. F., Sommadossi J.-P., Saalmann V., Cannon D. L., Xie M.-Y., Hart G. C., Smith G. A. & Hahn E. F. Antimicrob. Agents Chemother. 1990, 34, 1061-67). Cycloheximide was included as positive cytotoxic control, and untreated cells exposed to solvent were included as negative controls. The cytotoxicity IC50 was obtained from the concentration-response curve using the median effective method described previously (see Chou T.-C. & Talalay P. Adv. Enzyme Regul. 1984, 22, 27-55; Belen'kii M. S. & Schinazi R. F. Antiviral Res. 1994, 25, 1-11).

HepG2 cells [1] = assay: Mitochondrial toxicity assay: lactic acid production in HepG2 cells; conditions: 14-day assay
Procedure: To measure the effects of the compounds on lactic acid production, HepG2 cells from a stock culture were diluted and plated in 12-well culture plates at 2.5×10^4 cells per well. […] […] The culture medium was then filtered, and the lactic acid content in the medium was determined using a colorimetric lactic acid assay (Sigma-Aldrich). Since lactic acid product can be considered a marker for impaired mitochondrial function, elevated levels of lactic acid production detected in cells grown in the presence of test compounds would indicate a drug-induced cytotoxic effect. • ii) Effect of Compounds on Mitochondrial DNA Synthesis:

[2] = test system: CEM (human lymphoblastoid); assay: Cellular toxicity assay in CEM cells
Procedure: as §1

Vero = assay: Cellular toxicity assay in Vero cells
Procedure: as §1

[3] = test system: HCV GT 1b replicon (Huh-7 cells); assay: HCV Replicon Assay
Procedure: (§2) Huh 7 Clone B cells containing HCV Replicon RNA were seeded in a 96-well plate at 5000 cells/well, and the compounds tested at 10 μM in triplicate immediately after seeding. Following five days incubation (37° C., 5% CO2), total cellular RNA was isolated by using versaGene RNA purification kit from Gentra. Replicon RNA and an internal control (TaqMan rRNA control reagents, Applied Biosystems) were amplified in a single step multiplex Real Time RT-PCR Assay. The antiviral effectiveness of the compounds was calculated by subtracting the threshold RT-PCR cycle of the test compound from the threshold RT-PCR cycle of the no-drug control (ΔCt HCV). A ΔCt of 3.3 equals a 1-log reduction (equal to 90% less starting material) in Replicon RNA levels. The cytotoxicity of the compounds was also calculated by using the ΔCt rRNA values. 2′-C-Me-C was used as the positive control. To determine EC90 and IC50 values^2, ΔCt: values were first converted into fraction of starting material^3 and then were used to calculate the % inhibition.

HepG2 cells [4] = assay: Mitochondrial toxicity assay: mitochondrial and nuclear DNA levels in HepG2 cells; conditions: 14-day assay
Procedure: This assay was used in all studies described in this application that determine the effect of compounds on mitochondrial DNA content. In this assay, low-passage-number HepG2 cells were seeded at 5,000 cells/well in collagen-coated 96-well plates. Test compounds were added to the medium to obtain final concentrations of 0 μM, 0.1 μM, 10 μM and 100 μM. […] The mitochondrial cytochrome c oxidase subunit II (COXII) gene and the β-actin or rRNA gene were amplified from 5 μl of the eluted nucleic acids using a multiplex Q-PCR protocol with suitable primers and probes for both target and reference amplifications. […] For exon 3 of the […] gene (GenBank accession number E01094) the sense, probe, and antisense primers are 5′-[…]-3′, 5′-6-[…]-3′ and 5′-[…]-3′, respectively. The primers and probes for the rRNA gene are commercially available from Applied Biosystems. […] The arithmetic formula for this approach is given by 2-ΔΔCT, where ΔΔCT is (CT for average target test sample−CT for target control)−(CT for average reference test−CT for reference control) (see Johnson M R, K Wang, J B Smith, M J Heslin, R B Diasio. Quantitation of dihydropyrimidine dehydrogenase expression by real-time reverse transcription polymerase chain reaction. Anal. Biochem. 2000; 278:175-184). A decrease in mitochondrial DNA content in cells grown in the presence of drug indicated mitochondrial toxicity.

Huh-7 cells = assay: Cytotoxicity in HCV replicon assay (ΔCt rRNA); conditions: HCV GT 1b replicon, Huh-7 cells
Procedure: as §2

[5] = test system: Primary human bone marrow mononuclear cells; assay: Bone Marrow Colony Forming Cell Assay (BFU-E)
Procedure: Primary human bone marrow mononuclear cells were obtained commercially from Cambrex Bioscience (Walkersville, Md.). CFU-GM assays were carried out using a bilayer soft agar in the presence of 50 units/mL human recombinant granulocyte/macrophage colony-stimulating factor, while BFU-E assays used a […] matrix containing 1 unit/mL erythropoietin (see Sommadossi J P, Carlisle R. Toxicity of 3′-azido-3′-deoxythymidine and 9-(1,3-dihydroxy-2-propoxymethyl) guanine for normal human hepatopoietic progenitor cells in vitro. Antimicrob. Agents Chemother. 1987; 31: 452-454; Sommadossi, J P, Schinazi, R F, Chu, C K, and Xie, M Y. Comparison of cytotoxicity of the (−) and (+) enantiomer of 2′,3′-dideoxy-3′-thiacytidine in normal human bone marrow progenitor cells. Biochem. Pharmacol. 1992; 44:1921-1925). Each experiment was performed in duplicate in cells from three different donors. AZT was used as a positive control. […] The 50% inhibitory concentration (IC50) was obtained by least-squares linear regression analysis of the logarithm of drug concentration versus BFU-E survival fractions. Statistical analysis was performed with Student's t test for independent non-paired samples.

O=c1ccn(C2OC(CO)C(O)C2(F)Cl)c(=O)[nH]1 (centres unmarked) [Compound 10]
% inhibition at maximum concentration evaluated (Human PBM): −4.1%
CC50 (Human PBM; read-out: Cytotoxicity, CC50): > 100 µM
Lactic acid Production (% of control) (HepG2 cells [1]; 10 μM): 84.59 ± 7.30 % of control
Lactic acid Production (% of control) (HepG2 cells [1]; 50 μM): 122.3 ± 5.80 % of control
% inhibition at maximum concentration evaluated [2]: −48.1%
CC50 ([2]; read-out: Cytotoxicity, CC50): > 100 µM
% inhibition at maximum concentration evaluated (Vero): −30.7%
CC50 (Vero; read-out: Cytotoxicity, CC50): > 100 µM
EC50 [3]: > 10 µM
EC90 [3]: > 10 µM
Summary (mitochondrial toxicity) (HepG2 cells [4]): non-toxic; also recorded: not toxic
% Inhibition MtDNA (HepG2 cells [4]; 10 μM): < 1%
% Inhibition nDNA (HepG2 cells [4]; 10 μM): 8.76%
MtDNA Content (% of control) (HepG2 cells [4]; 10 μM): 161 (113-230) % of control
% Inhibition MtDNA (HepG2 cells [4]; 50 μM): <1/<1%
% Inhibition nDNA (HepG2 cells [4]; 50 μM): <1/<1%
MtDNA Content (% of control) (HepG2 cells [4]; 50 μM): 116 (77-175) % of control
IC50 (HepG2 cells [4]; read-out: IC50, MtDNA): > 50 µM
IC50 (HepG2 cells [4]; read-out: IC50, nDNA): > 50 µM
CC50 (Huh-7 cells): > 10 µM

Cc1cn([C@H]2C[C@H](N=[N+]=[N-])[C@@H](CO)O2)c(=O)[nH]c1=O [AZT, reference compound]
IC50 ([5]; Donor 1): 0.3 µM
IC50 ([5]; Donor 2): 2.9 µM

Nc1ccn([C@H]2CC[C@@H](CO)O2)c(=O)n1 [ddC, reference compound]
Lactic acid Production (% of control) (HepG2 cells [1]; 10 μM): 325.93 ± 27.05 % of control
Summary (mitochondrial toxicity) (HepG2 cells [4]): toxic
% Inhibition MtDNA (HepG2 cells [4]; 10 μM): 95.5%
% Inhibition nDNA (HepG2 cells [4]; 10 μM): 52.6%
MtDNA Content (% of control) (HepG2 cells [4]; 10 μM): 9.5 (5.7-16.0) % of control
IC50 (HepG2 cells [4]; read-out: IC50, MtDNA): < 10 µM
IC50 (HepG2 cells [4]; read-out: IC50, nDNA): ≤ 10 µM
